This test has as its target recombinant eIF4E (Homo sapiens (Human), UniProt P06730). The test can be described thus: Fluorescence polarization competition assay for eIF4E binding potency. The method, boiled down:
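Protein and fluorescent cap-analog probe (EDA-m7GDP-ATTO-550) were mixed first for 5 min, after which serially diluted compound was added to final 75 nM eIF4E, 20 nM probe, 1% DMSO. Reactions equilibrated 30 min at room temperature before polarization was measured.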

[1] abbreviates: fluorescence polarization competition, 75 nM recombinant eIF4E, 20 nM EDA-m7GDP-ATTO-550, IC50 class, read-out: elF4E FP.
Where [2] appears, read: inhibition of eIF4E/EDA-m7GDP-ATTO-550 binding by 50%, Table 4B calculated values, read-out: IC50.
Where [3] appears, read: inhibition of eIF4E/EDA-m7GDP-ATTO-550 binding, calculated IC50 values, Table 4B, read-out: IC50.

We go through 47 compounds from patent US11286268B1, “EIF4E-inhibiting compounds and methods” (EFFECTOR THERAPEUTICS, INC., priority 2019, dated 2022).

pIC50: −log10 of the molar value. Like-named read-outs stand apart in the source and are kept apart here.

recombinant eIF4E, sequence (P06730 whole entry): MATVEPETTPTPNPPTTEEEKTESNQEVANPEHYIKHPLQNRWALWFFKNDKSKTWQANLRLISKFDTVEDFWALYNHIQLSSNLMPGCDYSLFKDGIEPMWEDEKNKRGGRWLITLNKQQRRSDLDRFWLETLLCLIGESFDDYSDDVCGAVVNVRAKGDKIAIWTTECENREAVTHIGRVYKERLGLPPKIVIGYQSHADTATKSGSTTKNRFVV

Turning to `COC1CN(c2c(Cl)cc3nc(C)n(CCOc4ccc(Cl)cc4-c4cc(C)nc5c(C(=O)O)csc45)c(=O)c3c2C#N)C1` [compound 701], the pIC50 was above 7.30 under setting [1] and 7.72 under setting [2]. `Cc1nc2cnc(C#CC3CCCN3C3CC3)c(C#N)c2c(=O)n1CCOc1ccc(Cl)cc1-c1ccnc2c(C(=O)O)csc12` (stereo not drawn) [compound 1344]: under setting [3], the pIC50 is 7.74. Still for that read-out and setting: next, `Cc1nc2c(F)ccc(C#N)c2c(=O)n1CCOc1ccc(Cl)cc1-c1ccnc2c(C(=O)O)csc12` [compound 1373]: 7.57; `Cc1cc(-c2cc(Cl)ccc2OCCn2c(C)nc3cc(C(F)(F)F)c(Cl)nc3c2=O)c2scc(C(=O)O)c2n1` [compound 1978]: 7.60. `Cc1cc(-c2cc(Cl)ccc2OCCn2c(C)nc3cc(C(F)(F)F)c(-c4scnc4C)nc3c2=O)c2scc(C(=O)O)c2n1` [compound 939]: the pIC50 is above 7.30 under setting [1] and 7.92 under setting [2].

Take `Cc1nc2cnc(N(C)C3CCN(CC(=O)C4CC4)CC3)c(C#N)c2c(=O)n1CCOc1ccc(Cl)cc1-c1ccnc2c(C(=O)O)csc12` [compound 1128]: the pIC50 was above 7.30 under setting [1] and 7.62 under setting [2]. For `Cc1cc(-c2cc(Cl)ccc2OCCn2c(C)nc3cnc(OC4CN(C)C4)c(C#N)c3c2=O)c2sc(C)c(C(=O)O)c2n1` [compound 846], the pIC50 is, setting by setting: under setting [1], above 7.30; under setting [2], 7.42. As to `Cc1cc(-c2cc(Cl)ccc2OCCn2c(C)nc3cnc(CCN(C)C)c(C#N)c3c2=O)c2scc(C(=O)O)c2n1` [compound 365], the pIC50 was above 7.30 under setting [1] and 7.72 under setting [2]. For `Cc1nc2cc(C(F)(F)F)cc(C#N)c2c(=O)n1CCOc1ccc(Cl)cc1-c1coc2c(C(=O)O)ccnc12` [compound 324], in that order: 6.00 to 7.30 and 7.03. For the compound `Cc1cc(-c2cc(Cl)ccc2OCCn2c(C)nc3cc(C(F)(F)F)c(N4CCC(C(F)(F)F)CC4)nc3c2=O)c2scc(C(=O)O)c2n1` [compound 803], the pIC50 by setting is: under setting [1], 6.00 to 7.30; under setting [2], 6.79.

Turning to `Cc1cc(-c2cc(Cl)ccc2OCCn2c(C)nc3cc(C(F)(F)F)cc(C#N)c3c2=O)c2scc(C(=O)NS(C)(=O)=O)c2n1` [compound 565], the pIC50 runs as follows: under setting [1], above 7.30; under setting [2], 7.53. Turning to `Cc1cc(-c2cc(Cl)ccc2OCCn2c(C)nc3cnc(-c4ccc5ncsc5c4)c(C#N)c3c2=O)c2scc(C(=O)O)c2n1` [compound 993], the pIC50 is above 7.30 under setting [1] and 7.81 under setting [2].

For `COC1CN(c2ncc3nc(C)n(CCOc4ccc(Cl)cc4-c4cc(C)nc5c(C(=O)O)csc45)c(=O)c3c2C#N)C1` [compound 1010], the pIC50 is, setting by setting: under setting [1], above 7.30; under setting [2], 8.28. As to `Cc1nc2cnc(N3CCC(N(CC(F)F)C4COC4)CC3)c(C#N)c2c(=O)n1CC#Cc1ccc(Cl)cc1-c1ccnc2c(C(=O)NS(=O)(=O)CC(F)F)csc12` [compound 1591], under setting [3], the pIC50 is 7.44. Take `N#Cc1cncc2ncn(CCOc3ccc(Cl)cc3-c3cccc(C(=O)O)c3)c(=O)c12` [compound 34]: the pIC50 by setting is: under setting [1], 6.00 to 7.30; under setting [2], 7.05. As for `Cc1nc2cc(S(C)(=O)=O)c(N3CCN(C)CC3)c(C#N)c2c(=O)n1CCOc1ccc(Cl)cc1-c1ccnc2c(C(=O)O)csc12` [compound 1296], the pIC50 under setting [3] was 7.57. On to `Cc1nc2cnc(N(C)C3CCN(CC(F)(F)F)CC3)c(C#N)c2c(=O)n1CC#Cc1ccc(Cl)cc1-c1ccnc2c(C(=O)NS(C)(=O)=O)csc12` [compound 1501], for which the pIC50 under setting [3] is 7.69. Regarding `Cc1nc2c(F)cc(C(F)F)c(C#N)c2c(=O)n1CCOc1ccc(Cl)cc1-c1ccnc2c(C(=O)O)csc12` [compound 22], the pIC50 under setting [1] is above 7.30 and the pIC50 under setting [2] was 7.60.

`Cc1nc2cnc(C3=CCN(CC(F)F)CC3)c(C#N)c2c(=O)n1CC#Cc1ccc(Cl)cc1-c1ccnc2c(C(=O)O)csc12` [compound 1463]: the pIC50 under setting [3] was 7.64. `Cc1nc2cnc(N(C)C3CCN(C4CC(F)(F)C4)CC3)c(C#N)c2c(=O)n1CC#Cc1ccc(Cl)cc1-c1ccnc2c(C(=O)NS(=O)(=O)c3ccncc3)csc12` [compound 1829]: under setting [3], the pIC50 was 8.20. With `Cc1cc(-c2cc(Cl)ccc2OCCn2c(C)nc3cnc(-c4ccccc4Cl)c(C#N)c3c2=O)c2scc(C(=O)O)c2n1` [compound 947], the pIC50 is above 7.30 under setting [1] and 7.63 under setting [2]. For `Cc1nc2cc(C(F)(F)F)cc(C#N)c2c(=O)n1CCOc1ccc(Cl)cc1-c1nsc2c(C(=O)O)csc12` [compound 315], in that order: 6.00 to 7.30 and 6.24. For the compound `Cc1cc(-c2cc(Cl)ccc2OCCn2c(C)nc3cnc(C(C)F)c(C#N)c3c2=O)c2scc(C(=O)O)c2n1` (stereo not drawn) [compound 1065], the pIC50 runs as follows: under setting [1], above 7.30; under setting [2], 7.73.

On to `Cc1nc2cnc(N(C)C3CCN(CC(F)(F)F)CC3)c(C#N)c2c(=O)n1CC#Cc1ccc(Cl)cc1-c1ccnc2c(C(=O)NS(=O)(=O)CC(F)(F)F)csc12` [compound 1593], for which, under setting [3], the pIC50 is 7.21.

For `Cc1cc(-c2cc(Cl)ccc2OCCn2c(C)nc3cc(Cl)c(O)c(C#N)c3c2=O)c2scc(C(=O)O)c2n1` [compound 695], the pIC50 was above 7.30 under setting [1] and 8.98 under setting [2]. Regarding `Cc1c(S(C)(=O)=O)c2cc(C(F)(F)F)cc(C#N)c2c(=O)n1CCOc1ccc(Cl)cc1-c1ccnc2c(C(=O)O)csc12` [compound 318], the pIC50 is above 7.30 under setting [1] and 8.53 under setting [2]. For `Cc1cc(-c2cc(Cl)ccc2OCCn2c(C)nc3cc(C(F)(F)F)c(-c4ccnc(C)c4C)c(C#N)c3c2=O)c2scc(C(=O)O)c2n1` [compound 686], in that order: above 7.30 and 7.58.

On to `Cc1nc2cnc(N3CC4(CCN4CC(C)(C)F)C3)c(C#N)c2c(=O)n1CCOc1ccc(Cl)cc1-c1ccnc2c(C(=O)O)csc12` [compound 1635], for which the pIC50 under setting [3] was 7.67. In the case of `CCc1cc(-c2cc(Cl)ccc2OCCn2c(C)nc3cnc(N)c(C#N)c3c2=O)c2scc(C(=O)O)c2n1` [compound 1071], the pIC50 by setting is: under setting [1], 6.00 to 7.30; under setting [2], 7.27. For `COCc1ncc(C#N)c2c(=O)n(CCOc3ccc(Cl)cc3-c3ccc(C)c4c(C(=O)O)csc34)c(C)nc12` [compound 727], in that order: above 7.30 and 7.53.

On to `Cc1cc(-c2cc(Cl)ccc2OCCn2c(C)nc3c(ccc4cnncc43)c2=O)c2scc(C(=O)O)c2n1` [compound 671], for which the pIC50 by setting is: under setting [1], 6.00 to 7.30; under setting [2], 7.11.

`Cc1nc2cc(C#N)c(CN(C)C)c(C#N)c2c(=O)n1CCOc1ccc(Cl)cc1-c1ccnc2c(C(=O)O)csc12` [compound 510]: the pIC50 is, setting by setting: under setting [1], 6.00 to 7.30; under setting [2], 7.30. Turning to `Cc1nc2cc(Cl)cc(C#N)c2c(=O)n1CCOc1ccc(Cl)cc1-c1ccnc2c(C(=O)O)csc12` [compound 200], the pIC50 is above 7.30 under setting [1] and 7.36 under setting [2].

With `CCc1ncc(C#N)c2c(=O)n(CCOc3ccc(Cl)cc3-c3cc(C)nc4c(C(=O)O)csc34)c(C)nc12` [compound 338], the pIC50 was above 7.30 under setting [1] and 7.34 under setting [2]. Consider `Cc1nc2cnc(N3CCN(CCC(F)(F)F)CC3)c(C#N)c2c(=O)n1CC#Cc1ccc(Cl)cc1-c1ccnc2c(C(=O)O)csc12` [compound 1353], for which, under setting [3], the pIC50 was 7.76. Still for that read-out and setting: next, `Cc1nc2cnc(N3CCN(C4(C#N)CC4)CC3)c(C#N)c2c(=O)n1CC#Cc1ccc(Cl)cc1-c1ccnc2c(C(=O)O)csc12` [compound 1368]: 7.70. For the compound `Cc1cc(-c2cc(Cl)ccc2OCCn2c(C)nc3c(C)nc(-c4cc(F)ccc4F)c(C#N)c3c2=O)c2scc(C(=O)O)c2n1` [compound 998], the pIC50 runs as follows: under setting [1], above 7.30; under setting [2], 7.35. `Cc1nc2cc(Cl)c(S(C)(=O)=O)c(C#N)c2c(=O)n1CCOc1ccc(Cl)cc1-c1ccnc2c(C(=O)O)csc12` [compound 493]: the pIC50 is 6.00 to 7.30 under setting [1] and 7.03 under setting [2]. On to `Cc1nc2cnc(N(C)C3CCN(CC4(CF)CCC4)CC3)c(C#N)c2c(=O)n1CC#Cc1ccc(Cl)cc1-c1ccnc2c(C(=O)O)csc12` [compound 1584], for which the pIC50 under setting [3] was 7.43. `CO[C@H]1C[C@@H](c2ncc3nc(C)n(CCOc4ccc(Cl)cc4-c4cc(C)nc5c(C(=O)O)csc45)c(=O)c3c2C#N)C1` [compound 1152]: the pIC50 is above 7.30 under setting [1] and 8.42 under setting [2]. Take `Cc1nc2cc(C(F)F)c(OC(F)F)c(C#N)c2c(=O)n1CCOc1ccc(Cl)cc1-c1ccnc2c(C(=O)O)csc12` [compound 548]: the pIC50 is above 7.30 under setting [1] and 7.33 under setting [2]. Regarding `Cc1nc2cc(C(F)(F)F)c(N3CC4(C3)CN(C3CC3)C4)c(C#N)c2c(=O)n1CC#Cc1ccc(Cl)cc1-c1ccnc2c(C(=O)O)csc12` [compound 1570], the pIC50 under setting [3] was 7.64. With `Cc1nc2cc(C(F)(F)c3ccncc3)cc(C#N)c2c(=O)n1CCOc1ccc(Cl)cc1-c1ccnc2c(C(=O)O)csc12` [compound 216], the pIC50 under setting [1] is 6.00 to 7.30 and the pIC50 under setting [2] is 7.20. For `Cc1cc(-c2cc(Cl)ccc2OCCn2c(C)nc3cc(C(F)(F)F)c(N4CCN(C)CC4)nc3c2=O)c2sc(C)c(C(=O)O)c2n1` [compound 1096], in that order: above 7.30 and 7.47. Turning to `Cc1cc(-c2cc(Cl)ccc2OCCn2c(C)nc3cc(C(F)(F)F)c(-c4ccccn4)c(C#N)c3c2=O)c2sc(C)c(C(=O)O)c2n1` [compound 421], the pIC50 under setting [1] was above 7.30. As to `Cc1nc2cnc(N3CCC4(CC3)CN(CC(C)(F)F)C4)c(C#N)c2c(=O)n1CC#Cc1ccc(Cl)cc1-c1ccnc2c(C(=O)NS(=O)(=O)C3COC3)csc12` [compound 1411], the pIC50 under setting [3] is 7.76.

For `Cc1nc2ccc(C#N)c(C#N)c2c(=O)n1CCOc1ccc(Cl)cc1-c1ccnc2c(C(=O)O)csc12` [compound 228], the pIC50 runs as follows: under setting [1], above 7.30; under setting [2], 7.63.
